Experimental data reported in patent publication US7501406B2, “Fluoro substituted 2-oxo-azepan derivatives” (Hoffmann-La Roche Inc., priority 2005, dated 2009).

Target: γ-secretase (Homo sapiens, UniProt P49768)
Experiment: in vitro assay of γ-secretase activity (HEK293 membrane fraction, recombinant APP substrate, Abeta ELISA)
Type: biochemical
Details: γ-secretase inhibition; HEK293 membrane fraction as source of γ-secretase, recombinant C-terminal 100 amino acids of human APP as substrate, Abeta detected by ELISA
Text: Description of γ-secretase Assay
The activity of test compounds can be evaluated in assays which measure the proteolytic cleavage of suitable substrates by γ-secretase activity. These can be cellular assays where e.g., a substrate of γ-secretase is fused in its cytoplasmic domain to a transcription factor. Cells are transfected with this fusion gene and a reporter gene, e.g., firefly luciferase, which expression is enhanced by the transcription factor. Cleavage of the fused substrate by γ-secretase will lead to expression of the reporter gene which can be monitored in appropriate assays. The γ-secretase activity can also be determined in cell-free in vitro assays where e.g., a cell lysate containing the γ-secretase complex is incubated with a suitable APP-derived substrate which is cleaved to the Abeta peptides. The amount of produced peptides can be determined with specific ELISA assays. Cell lines of neuronal origin secrete Abeta peptides which can be measured with the specific ELISA assay. Treatment with compounds which inhibit γ-secretase leads to a reduction of secreted Abeta thus providing a measure of inhibition.
The in vitro assay of γ-secretase activity uses a HEK293 membrane fraction as a source of γ-secretase and a recombinant APP substrate. The latter consists of the C-terminal 100 amino acids of human APP fused to a 6×Histidin tail for purification which is expressed in E. coli in a regulatable expression vector, e.g. pEt15. This recombinant protein corresponds to the truncated APP fragment which results after […] of the extracellular domain and which constitutes the γ-secretase substrate. The assay principle is described in Li Y M et al, PNAS 97(11), 6138-6143 (2000). Hek293 cells are mechanically disrupted, and the microsomal fraction is isolated by differential centrifugation. The membranes are solubilized in detergent (0.25% CHAPSO) and incubated with the APP substrate. The Abeta peptides which are produced by γ-secretase cleavage of the substrate are detected by specific ELISA assays as described (Brockhaus M et al, Neuroreport 9(7), 1481-1486 (1998).
The preferred compounds show a IC50<10 nM. In the list below are described some data to the γ-secretase inhibition: […]

Row | Compound | IC50
1 | COc1ccc(CN([C@@H]2CC(F)(F)CCNC2=O)S(=O)(=O)c2ccc(Cl)cc2)c(F)c1F [Example 4, 4-Chloro-N-(2,3-difluoro-4-methoxy-benzyl)-N-((R)-5,5-difluoro-2-oxo-azepan-3-yl)-benzenesulfonamide] | 2 nM
2 | O=C1NCCC(F)(F)C[C@H]1N(Cc1ccc(-c2ncn[nH]2)cc1F)S(=O)(=O)c1ccc(Cl)cc1 [Example 12, 4-Chloro-N-((R)-5,5-difluoro-2-oxo-azepan-3-yl)-N-[2-floro-4-(2H-[1,2,4]triazol-3-yl)-benzyl]-benzenesulfonamide] | 6 nM
3 | O=C(NC1CC1)c1ccc(CN([C@@H]2CCC(F)(F)CNC2=O)S(=O)(=O)c2ccc(Cl)cc2)cc1 [Example 13, 4-{[(4-Chloro-benzenesulfonyl)-((R)-6,6-difluoro-2-oxo-azepan-3-yl)-amino]-methyl}-N-cyclopropyl-benzamide] | 297 nM
4 | COc1ccc(CN([C@@H]2CC(F)(F)CCNC2=O)S(=O)(=O)CCC(F)(F)F)cn1 [Example 16, 3,3,3-Trifluoro-propane-1-sulfonic acid ((R)-5,5-difluoro-2-oxo-azepan-3-yl)-(6-methoxy-pyridin-3-ylmethyl)-amide] | 150 nM
5 | COc1ccc(CN([C@@H]2CC(F)(F)CCNC2=O)S(=O)(=O)c2ccc(Cl)s2)cn1 [Example 17, 5-Chloro-thiophene-2-sulfonic acid ((R)-5,5-difluoro-2-oxo-azepan-3-yl)-(6-methoxy-pyridin-3-ylmethyl)-amide] | 110 nM
